The values below come from patent US10166218B2, “3-(1H-indol-2-yl)-1H-pyrazolo[3,4-C]pyridines and therapeutic uses thereof” (Samumed, LLC, priority 2015, dated 2019).

Holding throughout (assay type): cell-based
The test system of one test is IL-6 (THP-1 cells). Put plainly: Inhibition of IL-6 in LPS-stimulated THP-1 human monocyte cells (HTRF). The following applies: inhibition of IL-6 in LPS-stimulated THP-1 cells, HTRF, 10-point dose-response starting from 10 μM. Here is the method:
Human monocyte cell line (THP-1 cells; Catalog # TIB-202, ATCC, Manassas, Va.) were cultured in Roswell Park Memorial Institute (RPMI) 1640 Medium (Catalog #21870-100, Buffalo, N.Y.) with 1% L-glutamine, 1% HEPES, 1% Sodium Pyruvate, 2% Sodium Bicarbonate supplemented with 100 units/mL penicillin, 50 μg/mL streptomycin, 2-mercaptoethanol (0.05 mM) [basal medium] and 10% fetal bovine serum (Catalog #16140089, Life Technologies, Carlsbad, Calif.) at 37° C. and 5% CO2.
THP-1 cells were cultured in basal media with 1% FBS for 24 hours before the start of the assay. Each compound was dissolved in DMSO as a 10 mM stock and used to prepare compound source plates. Serial dilution (1:3, 10-point dose-response curves starting from 10 μM) and compound transfer was performed using the ECHO 550 (Labcyte, Sunnyvale, Calif.) into 384-well white low volume assay plates (Greiner Bio-One) with appropriate DMSO backfill for a final DMSO concentration of 0.1%. THP-1 cells were plated at 5000 cells/well in the 384-well plates and incubated at 37° C. for 2 h. 500 ng/mL of LPS was added after 2 hours and cells were incubated for another 22 hours at 37° C. Plates were spun in a centrifuge for 1 minute at […] and a mixture of anti-IL6 XL665, and anti-IL6 Cryptate diluted in reconstitution buffer (Cisbio Inc.) was added to each well. Following incubation for 3 hrs at room temperature, Homogeneous Time-Resolved Fluorescence (HTRF) was measured using the Envision (Perkin Elmer) at 665 nm and […]. The ratio of fluorescence at 665 nm to 620 nm was used as a readout for IL6 quantification. All samples were processed in duplicate. Readings were normalized to DMSO treated cells and normalized activities were utilized for EC50 calculations using the dose-response log (inhibitor) vs. response-variable slope (four parameters) nonlinear regression feature available in GraphPad Prism 5.0 (or Dotmatics). For EC50 of >10 μM, the percent inhibition at 10 μM is provided.
On the technique in general: In TR-FRET formats the signal depends on donor and acceptor labels being close together.

For a further test, the system named is SW480 colon cancer cells. Put plainly: Cell viability assay (CellTiter-Blue) in SW480 colon cancer cells. The following applies: Homo sapiens, 96 h, four days, CellTiter-Blue. Here is the method: Representative compounds were screened using the following assay procedure to assess the effect on cell viability as described below.
Each compound was dissolved in DMSO as a 10 mM stock and used to prepare compound source plates. Serial dilution (1:3, 8-point dose-response curves from 10 μM to 0.0045 μM) and compound transfer was performed using the ECHO 550 (Labcyte, Sunnyvale, Calif.) into 96-well clear bottom, black-walled plates (Corning-Costar).
Approximately 2×10^3 SW480 colon cancer cells were seeded into each well and allowed to incubate in the presence or absence of compound for four days at 37° C./5% CO2. Eight replicates of DMSO-treated cells served as controls and cells treated with compound were performed in duplicate.
After incubation, 20 μL of CellTiter-Blue (Promega) was added to each well allowed to incubate for approximately 3 hours. This reagent was a buffered solution which contains resazurin, metabolically active cells were able to reduce rezarurin (blue) into resorufin (pink) which was highly fluorescent. This measured fluorescence was used as a readout for cell viability.
After incubation, the plates were read at Ex 560 nm Em 590 nm (Cytation 3, BioTek). Dose-response curves were generated and EC50 concentration values were calculated using non-linear regression curve fit in the GraphPad Prism (San Diego, Calif.) or Dotmatics' Studies Software (Bishops Stortford, UK). For EC50 of >10 μM, the percent inhibition at 10 μM is provided.
On the technique in general: The colour change of resazurin is a common sign of viable cells or microbes.

In test [1] the test system is Wnt activity (Sp5-Luc reporter, TCF/LEF binding sites) in SW480 colon carcinoma cells. Description: Screening assay for Wnt activity: Sp5-Luc reporter gene assay in stably transduced SW480 cells. The note with it: Homo sapiens, overnight incubation. An excerpt:
The screening assay for Wnt activity is described as follows. Reporter cell lines can be generated by stably transducing cancer cell lines (e.g., colon cancer) or primary cells (e.g., IEC-6 intestinal cells) with a lentiviral construct that includes a Wnt-responsive promoter driving expression of the firefly luciferase gene.
SW480 colon carcinoma cells were transduced with a lentiviral vector expressing luciferase with a human Sp5 promoter consisting of a sequence of eight TCF/LEF binding sites. SW480 cells stably expressing the Sp5-Luc reporter gene and a hygromycin resistance gene were selected by treatment with 150 μg/mL of hygromycin for 7 days. These stably transduced SW480 cells were expanded in cell culture and used for all further screening activities. Each compound was dissolved in DMSO as a 10 mM stock and used to prepare compound source plates. Serial dilution (1:3, 10-point dose-response curves starting from 10 μM) and compound transfer was performed using the ECHO 550 (Labcyte, Sunnyvale, Calif.) into 384-well white solid bottom assay plates (Greiner Bio-One) with appropriate DMSO backfill for a final DMSO concentration of 0.1%. For Sp5-Luc reporter gene assays, the cells were plated at 4,000 cells/well in 384-well plates with medium containing 1% fetal bovine serum and incubated overnight at 37° C. and 5% CO2. Following incubation, 20 μl of BrightGlo luminescence reagent (Promega) was added to each well of the 384-well assay plates. The plates were placed on an orbital shaker for 2 min and then luminescence was quantified using the Envision (Perkin Elmer) plate reader. Readings were normalized to DMSO only treated cells, and normalized activities were utilized for EC50 calculations using the dose-response log (inhibitor) vs. response-variable slope (four parameters) nonlinear regression feature available in GraphPad Prism 5.0 (or Dotmatics). For EC50 of >10 μM, the percent inhibition at 10 μM is provided.

For test [2], the system named is primary human fibroblasts derived from IPF patients (LL29 cells) treated with TGF-β1; α-smooth muscle actin (αSMA). Description: Inhibition of the fibrotic process: αSMA staining in TGF-β1 treated primary human fibroblasts from IPF patients (LL29 cells). The note with it: Fibroblast, 96 h, TGF-β1 20 ng/mL, 4 days, % cells positive for αSMA. An excerpt: Representative compounds were screened using primary human fibroblasts (derived from IPF patients) treated with TGF-β1 to determine their ability to inhibit the fibrotic process.
Primary human fibroblasts derived from IPF patients (LL29 cells) [^1Xiaoqiu Liu, et. al., “Fibrotic Lung Fibroblasts Show Blunted Inhibition by cAMP Due to Deficient cAMP Response Element-Binding Protein Phosphorylation”, Journal of Pharmacology and Experimental Therapeutics (2005), 315(2), 678-687; ^2Watts, K. L., et. al., “RhoA signaling modulates cyclin D1 expression in human lung fibroblasts; implications for idiopathic pulmonary fibrosis”, Respiratory Research (2006), 7(1), 88] were obtained from American Type Culture Collection (ATCC) and expanded in F12 medium supplemented with 15% Fetal Bovine Serum and Penicillin/Streptomycin.
Each compound was dissolved in DMSO as a 10 mM stock and used to prepare compound source plates. Serial dilution (1:2, 11-point dose-response curves from 10 μM to 1.87 nM) and compound transfer was performed using the ECHO 550 (Labcyte, Sunnyvale, Calif.) into 384-well clear bottom assay plates (Greiner Bio-One) with appropriate DMSO backfill for a final DMSO concentration of 0.1%. LL29 cells are plated at 1,500 cells/well in 80 μL/well F12 medium supplemented with 1% Fetal Bovine Serum. One hour after addition of the cells, TGF-β1 (Peprotech; 20 ng/mL) was added to the plates to induce fibrosis (ref. 1 and 2 above). Wells treated with TGF-β1 and containing DMSO were used as controls. Cells were incubated at 37° C. and 5% CO2 for 4 days. Following incubation for 4 days, SYTOX green nucleic acid stain (Life Technologies [Thermo Fisher Scientific]) was added to the wells at a final concentration of 1 μM and incubated at room temperature for 30 min. Cells were then fixed using 4% formaldehyde (Electron Microscopy Sciences), washed 3 times with PBS followed by blocking and permeabilization using 3% Bovine Serum Albumin (BSA; Sigma) and 0.3% Triton X-100 (Sigma) in PBS. Cells were then stained with antibody specific to α-smooth muscle actin (αSMA; Abcam) (ref. 1 and 2 above) in 3% Bovine Serum Albumin (BSA; Sigma) and 0.3% Triton X-100 (Sigma) in PBS, and incubated overnight at 4° C. Cells were then washed 3 times with PBS, followed by incubation with Alexa Flor-647 conjugated secondary antibody (Life Technologies [Thermo Fisher Scientific]) and DAPI at room temperature for 1 hour. Cells were then washed 3 times with PBS and plates were sealed for imaging. αSMA staining was imaged by excitation at 630 nm and emission at 665 nm and quantified using the Compartmental Analysis program on the CellInsight CX5 (Thermo Scientific). Dead or apoptotic cells were excluded from analysis based on positive SYTOX green staining. % of total cells positive for αSMA were counted in each well and normalized to the average of 11 wells treated with TGF-β1 on the same plate using Dotmatics' Studies Software. The normalized averages (fold change over untreated) of 3 replicate wells for each compound concentration were used to create dose-responses curves and EC50 values were calculated using non-linear regression curve fit in the Dotmatics' Studies Software. For EC50 of >10 μM, the percent inhibition at 10 μM is provided.

Broadly, the EC50 is the midpoint of the concentration-response curve. A lower EC50 goes with an effect from little substance. For `CC(C)Nc1cncc(-c2cc3c(-c4cc5c(N6CCCCC6)cccc5[nH]4)n[nH]c3cn2)c1` [Compound 180, N-Isopropyl-5-(3-(4-(piperidin-1-yl)-1H-indol-2-yl)-1H-pyrazolo[3,4-c]pyridin-5-yl)pyridin-3-amine], the EC50 in the test on IL-6 (THP-1 cells) was found to be 1000 nM; with SW480 colon cancer cells, 1730 nM; in test [1] it was 362 nM; in test [2], 267 nM.
For `c1ccc(-c2cc3c(-c4cc5c(N6CCCCC6)cccc5[nH]4)n[nH]c3cn2)nc1` [Compound 196, 3-(4-(Piperidin-1-yl)-1H-indol-2-yl)-5-(pyridin-2-yl)-1H-pyrazolo[3,4-c]pyridine], in that order: 8780 nM, 6060 nM, 3420 nM and 1160 nM.
With `CN1CCN(c2cccc3[nH]c(-c4n[nH]c5cnc(-c6cncc(N)c6)cc45)cc23)CC1` [Compound 227, 5-(3-(4-(4-Methylpiperazin-1-yl)-H-indol-2-yl)-1H-pyrazolo[3,4-c]pyridin-5-yl)pyridin-3-amine], the EC50 with IL-6 (THP-1 cells) was found to be 1080 nM; with SW480 colon cancer cells it was 2610 nM; in test [1] it was 1160 nM; in test [2] it was 1910 nM.
For `CN1CCN(c2cccc3[nH]c(-c4n[nH]c5cnc(-c6cncc(NC(=O)Cc7ccccc7)c6)cc45)cc23)CC1` [Compound 234, N-(5-(3-(4-(4-Methylpiperazin-1-yl)-H-indol-2-yl)-1H-pyrazolo[3,4-c]pyridin-5-yl)pyridin-3-yl)-2-phenylacetamide], in that order: 1940 nM, 3130 nM, 1040 nM and 1250 nM.
Turning to `CN(C)Cc1cncc(-c2cc3c(-c4cc5c(N6CCN(C)CC6)cccc5[nH]4)n[nH]c3cn2)c1` [Compound 237, N,N-Dimethyl-1-(5-(3-(4-(4-methylpiperazin-1-yl)-1H-indol-2-yl)-1H-pyrazolo[3,4-c]pyridin-5-yl)pyridin-3-yl)methanamine], the EC50 with IL-6 (THP-1 cells) was determined as 3610 nM; in the test on SW480 colon cancer cells, 3800 nM; in test [1], 3400 nM; in test [2], 7320 nM.
For `CCCCC(=O)Nc1cncc(-c2cc3c(-c4cc5c(N6CCN(C)CC6)cccc5[nH]4)n[nH]c3cn2)c1` [Compound 243, N-(5-(3-(4-(4-Methylpiperazin-1-yl)-H-indol-2-yl)-1H-pyrazolo[3,4-c]pyridin-5-yl)pyridin-3-yl)pentanamide], in that order: 3230 nM, 2140 nM, 1050 nM and 1010 nM.
For `CN1CCN(c2cccc3[nH]c(-c4n[nH]c5cnc(-c6cncnc6)cc45)cc23)CC1` [Compound 251, 3-(4-(4-Methylpiperazin-1-yl)-1H-indol-2-yl)-5-(pyrimidin-5-yl)-1H-pyrazolo[3,4-c]pyridine], in that order: 1080 nM, 1690 nM, 1520 nM and 1690 nM.
For `CC(C)CC(=O)Nc1cncc(-c2cc3c(-c4cc5ccccc5[nH]4)n[nH]c3cn2)c1` [Compound 254, N-(5-(3-(1H-Indol-2-yl)-1H-pyrazolo[3,4-c]pyridin-5-yl)pyridin-3-yl)-3-methylbutanamide], in that order: 200 nM, 1270 nM, 154 nM and 139 nM.
Regarding `c1cncc(-c2cc3c(-c4cc5ccccc5[nH]4)n[nH]c3cn2)c1` [Compound 256, 3-(1H-Indol-2-yl)-5-(pyridin-3-yl)-1H-pyrazolo[3,4-c]pyridine], the EC50 came out at 56 nM in the test with IL-6 (THP-1 cells), 2250 nM in the test with SW480 colon cancer cells, 185 nM in test [1] and 51 nM in test [2].
With `c1cc(-c2ccoc2)c2cc(-c3n[nH]c4cnc(-c5ccncc5)cc34)[nH]c2c1` [Compound 326, 3-(4-(Furan-3-yl)-1H-indol-2-yl)-5-(pyridin-4-yl)-1H-pyrazolo[3,4-c]pyridine], the EC50 in the test on IL-6 (THP-1 cells) came to 5080 nM; with SW480 colon cancer cells, 103 nM; in test [1], 157 nM; in test [2] it was 1390 nM.
